# Assay results: patent US11572344B2, “Cyanoaryl-aniline compounds for treatment of dermal disorders” (NFlection Therapeutics, Inc., priority 2018, dated 2023)
# Experiments:
# [1] = Liver S9 half-life stability assay; assay type: in vitro ADME; conditions: human, liver S9 fraction, pH 7.4; 1 μM test compound, 2 mg/mL liver protein, 1 mM NADPH; read-out: Assay 4: liver S9 half-life
# Protocol: Compounds can be assessed for metabolic stability in human skin by assessing their rate of disappearance from human S9 skin fraction. Similarly, compounds can be assessed for metabolic stability in human liver by assessing their rate of disappearance from human S9 liver fraction. The protocol below is used to assess the difference between skin and hepatic metabolism.
# The assay was carried out in 96-well microtiter plates at 37° C. Reaction mixtures (25 μL) contained a final concentration of 1 μM test compound, 2 mg/mL liver or skin protein, and 1 mM NADPH in buffer (100 mM potassium phosphate, pH 7.4 buffer with 1 mM EDTA, 3 mM MgCl2). At each of the time points (0, 15, 30, and 60 minutes), 150 μL of quench solution (100% acetonitrile with 0.1% formic acid) with internal standard was transferred to each well. Besides the zero minute controls, mixtures containing the same components except the NADPH were also prepared as the negative control. Verapamil or testosterone was included as a positive control to verify assay performance. Plates were sealed and centrifuged at 4° C. for 15 minutes at 4000 rpm. The supernatant was transferred to fresh plates for LC/MS/MS analysis.
# All samples were analyzed on LC/MS/MS using an AB Sciex API 4000 instrument, coupled to a Shimadzu LC-20AD LC Pump system. Analytical samples were separated using a Waters Atlantis T3 dC18 reverse phase HPLC column (20 mm×2.1 mm) at a flow rate of 0.5 mL/min. The mobile phase consisted of 0.1% formic acid in water (solvent A) and 0.1% formic acid in 100% acetonitrile (solvent B).
# The extent of metabolism was calculated as the disappearance of the test compound, compared to the 0-min control reaction incubations. Initial rates were calculated for the compound concentration and used to determine t1/2 values and subsequently, the intrinsic clearance, CLint=(0.693) (1/t1/2 (min)) (mL incubation/mg of S9 protein).
# Assay 4 is the liver S9 half-life stability assay as described in Example 42. A4 indicates a half life of greater than 50 min and less than or equal to 200 min and B4 indicates a half life of less than or equal to 50 minutes.
# MEK1 = MEK1 (Homo sapiens (Human), UniProt Q02750); test: MEK Inhibition Assay-2 (Z′-LYTE biochemical assay); conditions: Z′-LYTE assay of Example 39; read-out: IC50 against MEK1
# Protocol: MEK1 inhibitory activity of compounds were tested using the following procedure (protocol available at thermofisher.com/content/dam/LifeTech/migration/files/drug-discovery/pdfs.par.60256.file.dat/20130430%20ssbk %20customer %20protocol %20and %20assa y %20conditions.pdf). The Z′-LYTE biochemical assay (ThermoFisher) employs a fluorescence-based, coupled-enzyme format and is based on the differential sensitivity of phosphorylated and non-phosphorylated peptides to proteolytic cleavage.
# Test compounds in 100% DMSO were screened in 1% DMSO (final) in the well. For 10 point titrations, 3-fold serial dilutions are conducted from the starting concentration of 30 μM.
# After the 1 hour incubation, 5 μL of a 1:1024 dilution of Development Reagent A (available from Invitrogen, catalog no. PV3295) was added.
# ATP solutions were diluted to a 4× working concentration in Kinase Buffer (50 mM HEPES pH 7.5, 0.01% BRIJ-35, 10 mM MgCl2, 1 mM EGTA). ATP Km apparent was previously determined using a Z′-LYTE assay. The Development Reagent was diluted in Development Buffer (available from Invitrogen, catalog no. P3127).
# Assay Protocol: 2.5 μL of 4× test compound or 100 nL of 100× Test Compound plus 2.4 μL Kinase Buffer, 5 μL of the 2× Peptide/Kinase Mixture, 2.5 μL of 4×ATP Solution were added to the plates and placed on a shake plate for 30-seconds. The kinase reaction was allowed to proceed for 60-minute at room temperature, before 5 μL of Development Reagent Solution was added, and the mixture agitated for 30-seconds on a shake plate. The mixture was incubated for 60-minute at room temperature. Fluorescence was measured using a plate reader and the data were analyzed.
# This control yielded 100% cleaved peptide in the Development Reaction. The 100% Phosphorylation Control, which consisted of a synthetically phosphorylated peptide of the same sequence as the peptide substrate, was designed to allow for the calculation of percent phosphorylation. This control yielded a very low percentage of cleaved peptide in the Development Reaction. The 0% Phosphorylation and 100% Phosphorylation Controls allow for the calculation of the percent phosphorylation achieved in a specific reaction well.
# The minimum emission ratio in a screen was established by the 0% Inhibition Control, which contained active kinase. This control was designed to produce a 10-50% phosphorylated peptide in the Kinase Reaction. Cascade assays may produce up to 70% phosphorylated peptide.
# A known inhibitor control standard curve, 10 point titration, was run for each individual kinase on the same plate as the kinase to ensure the kinase was inhibited within an expected IC50 range previously determined.
# The following controls are prepared for each concentration of Test Compound assayed. […] The expected value for a non-interfering compound should be 100%. Any value outside of 90% to 110% was flagged. […] The expected value for a non-fluorescence compound should be 0%. Any value>20% was flagged.
# The data in Table A was calculated. XLfit from IDBS was used. The dose response curve was curve fit to model number 205 (sigmoidal dose-response model).
# Table 3 lists the MEK1 inhibition assay results of selected compounds according to the above procedure.
# [2] = systemic MEK inhibitor; cited from earlier work
# A375 cells = test: A375 (BRAF) GI50 cell-based assay (Cell Titer-Glo); conditions: Homo sapiens, A-375, 72 hours, read-out: Assay 2: A375 (BRAF) GI50
# Protocol: (§1) Alternatively, the following procedure can be used to measure cell-based activity. Test compounds were dissolved in DMSO in 10 mM stock. Cell Titer-Glo® 2.0 Luminescent cell viability assay reagent was purchased from Promega (Madison, Wis.). A375 and HCT116 cell lines were purchased from American Type Culture Collection (Manassas, Va.). For A375 cells, cell culture media was DMEM+10% FBS. For HCT116 cells, cell culture media was McCoy's 5A+10% FBS. All media were supplemented with 100 μg/mL of penicillin, and 100 μg/mL of streptomycin. Cultures were maintained at 37° C. in a humidified atmosphere of 5% CO2 and 95% air.
# (§2) Test compounds were diluted in DMSO solution with 10-dose and 3-fold dilutions in a source plate starting at 10 mM. 25 nL of each test compound was delivered from the source plate to each well of the 384-well cell culture plates (T=Final) by Echo 550. 25 μL of culture medium containing 2000 of A375 or HCT116 cells was added to each of the wells in duplicates of the cell culture plates (T=0 and T=Final). 25 μL of Cell Titer Glo 2.0 reagent was added to each well of cell culture plate (T=0). The contents were mixed on an orbital shaker for 2 min and incubated at room temperature for 15 min to stabilize luminescent signal. Luminescence was recorded by Envision 2104 Multilabel Reader (PerkinElmer, Santa Clara, Calif.). The number of viable cells in culture was determined based on quantitation of the ATP present in each culture well. The cells in cell culture plate (T=Final) were incubated with the compounds at 37° C., 5% CO2 for 72 hours. 25 μL of Cell Titer Glo 2.0 reagent was added to each well. The contents were mixed on an orbital shaker for 2 min and incubated at room temperature for 15 min to stabilize luminescent signal. Luminescence was recorded by Envision 2104 Multilabel Reader (PerkinElmer, Santa Clara, Calif.). The number of viable cells in culture was determined based on quantitation of the ATP present in each culture well. The GI50 curves were plotted using the GraphPad Prism 4 program based on a sigmoidal dose-response equation Y=Bottom+(Top-Bottom)/(1+10^((Log EC50−X)*HillSlope)). All parameters in the equation were calculated by GraphPad Prism 4 program. […] Accordingly, GI50 is the value of 10^X, where X was calculated by the Curve Fitting Equation when Y=50 using Excel.
# Assay 2 is the A375 (BRAF) GI50 (nM) cell-based assay as described in Example 41.
# HCT116 cells = test: HCT116 (Kras) GI50 cell-based assay (Cell Titer-Glo); conditions: Homo sapiens, HCT-116, 72 hours, read-out: Assay 3: HCT116 (Kras) GI50
# Protocol: as §1, §2
# Assay 3 is the HCT116 (Kras) GI50 (nM) assay as described in Example 41.
# Sequence of MEK1 (Q02750 whole entry): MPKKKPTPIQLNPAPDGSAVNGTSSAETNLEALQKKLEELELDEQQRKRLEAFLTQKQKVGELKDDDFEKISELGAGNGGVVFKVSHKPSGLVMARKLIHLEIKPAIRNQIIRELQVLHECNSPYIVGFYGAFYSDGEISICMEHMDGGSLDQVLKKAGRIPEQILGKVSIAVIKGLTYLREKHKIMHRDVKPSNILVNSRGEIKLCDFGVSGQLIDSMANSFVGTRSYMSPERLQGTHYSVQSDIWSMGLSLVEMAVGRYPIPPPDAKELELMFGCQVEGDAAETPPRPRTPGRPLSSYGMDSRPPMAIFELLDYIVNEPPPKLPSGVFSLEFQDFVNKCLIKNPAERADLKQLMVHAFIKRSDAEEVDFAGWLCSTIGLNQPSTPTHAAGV
Structure (SMILES),half-life at 1 μM [1] [min],IC50 (MEK1) [µM],other results
N#Cc1ccc(C(=O)NC2CC2)c(Nc2ccc(I)cc2F)c1 [Compound 1.005],,> 1.5,
O=C(NOC[C@H](O)CO)c1ccc(F)c(F)c1Nc1ccc(I)cc1F [PD0325901],,,"side effects in clinical trials [2]: neurological side effects associated with ataxia, confusion, and syncope"
"COC(=O)CCONC(=O)c1ccc(C#N)cc1Nc1ccc(I)cc1F [Compound 1.022, Methyl 3-((4-cyano-2-((2-fluoro-4-iodophenyl)amino)benzamido)oxy) propanoate]",,> 1.5,
CONC(=O)c1ccc(C#N)cc1Nc1ccc(I)cc1F [Compound 1.007],≤ 50,,GI50 (A375 cells): 0.5 to 1.5 µM; GI50 (HCT116 cells): 0.75 to 2 µM

# Further lines, with some results ahead:
half-life at 1 μM [1] [min],IC50 (MEK1) [µM],Structure (SMILES),other results
≤ 50,,CCCONC(=O)c1ccc(C#N)cc1Nc1ccc(I)cc1F [Compound 1.009],
,≤ 0.15,"N#Cc1ccc(C(=O)NO)c(Nc2ccc(I)cc2F)c1 [Compound 1.017, 4-Cyano-2-((2-fluoro-4-iodophenyl)amino)-N-hydroxybenzamide]",
≤ 50,,CCONC(=O)c1ccc(C#N)cc1Nc1ccc(I)cc1F [Compound 1.008],GI50 (A375 cells): 0.5 to 1.5 µM; GI50 (HCT116 cells): 0.75 to 2 µM
